{"source": "patent US11939307B2", "about": "“Phenylmethyl-piperazine derivatives and antiviral uses thereof” (INSTITUTE OF MEDICINAL BIOTECHNOLOGY, CHINESE ACADEMY OF …, priority 2019, dated 2024)", "data": [{"test_system": "HCV", "assay": "Assay of anti-HCV activity in HCV-infected Huh7.5 cells (intracellular HCV RNA by one-step quantitative RT-PCR)", "format": "cell-based", "conditions": "Hepatitis C virus, Huh7.5, 96 h, read-out: inhibitory activities (inhibitory levels of the compounds against HCV replication)", "outline": "(§1)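 Huh7.5 cells were infected with HCV particles while compounds were added at 1 μM, then incubated 96 h at 37 °C, 5% CO2. Intracellular HCV RNA was quantified by one-step qRT-PCR, and inhibition was calculated relative to the viral control.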", "units": {"inhibition at 1 µM": "%"}, "values": [{"smiles": "CN(CCN1CC1)c1ccc(C#N)c(CN2CCN(C(c3ccc(Cl)cc3)c3ccc(Cl)cc3)CC2)c1", "note": "[Compound 87, 4-((2-(aziridin-1-yl)ethyl)(methyl)amino)-2-((4-(bis(4-chlorophenyl)methyl)piperazin-1-yl)methyl)benzonitrile]", "inhibition at 1 µM": "50 to 75"}]}, {"test_system": "HCV", "assay": "Assay of anti-HCV activity in HCV-infected Huh7.5 cells (intracellular HCV RNA by one-step quantitative RT-PCR)", "format": "cell-based", "conditions": "Hepatitis C virus; compound at 1 μM; Huh7.5 cells infected with HCV; 96 hrs; intracellular HCV RNA vs viral control; read-out: inhibitory activities (inhibitory levels of the compounds against HCV replication)", "outline": "as §1", "units": {"inhibition at 1 µM": "%"}, "values": [{"smiles": "CN(C)C1CCN(c2ccc(C#N)c(CN3CCN(C(c4ccc(Cl)cc4)c4ccc(Cl)cc4)CC3)c2)C1", "note": "(centres unmarked) [Compound 85, 2-((4-(bis(4-chlorophenyl)methyl)piperazin-1-yl)methyl)-4-(3-(dimethylamino)pyrrolidin-1-yl)benzonitrile]", "inhibition at 1 µM": "> 75"}, {"smiles": "CN(CCN1CCCC1)c1ccc(C#N)c(CN2CCN(C(c3ccc(Cl)cc3)c3ccc(Cl)cc3)CC2)c1", "note": "[Compound 86, 2-((4-(bis(4-chlorophenyl)methyl)piperazin-1-yl)methyl)-4-(methyl(2-(pyrrolidin-1-yl)ethyl)amino)benzonitrile]", "inhibition at 1 µM": "> 75"}, {"smiles": "CN1CCCN(c2ccc(C#N)c(CN3CCN(C(c4ccccc4)c4ccc(Cl)cc4)CC3)c2)CC1", "note": "(centres unmarked) [Compound 88, 2-((4-((4-chlorophenyl)(phenyl)methyl)piperazin-1-yl)methyl)-4-(4-methyl-1,4-diazepan-1-yl)benzonitrile]", "inhibition at 1 µM": "> 75"}, {"smiles": "CN1CCCN(c2ccc(C#N)c(CN3CCN(C(c4ccncc4)c4ccc(Cl)cc4)CC3)c2)CC1", "note": "(centres unmarked) [Compound 89, 2-((4-((4-chlorophenyl)(pyridin-4-yl)methyl)piperazin-1-yl)methyl)-4-(4-methyl-1,4-diazepan-1-yl)benzonitrile]", "inhibition at 1 µM": "> 75"}, {"smiles": "CN(C)CCN(C)c1ccc(C#N)c(CN2CCC(C(c3ccc(Cl)cc3)c3ccc(Cl)cc3)CC2)c1", "note": "[Compound 90, 2-((4-(bis(4-chlorophenyl)methyl)piperidin-1-yl)methyl)-4-((2-(dimethylamino)ethyl)(methyl)amino)benzonitrile]", "inhibition at 1 µM": "> 75"}, {"smiles": "CN1CCCN(c2ccc(C#N)c(CN3CCC(C(c4ccc(F)cc4)c4ccc(F)cc4)CC3)c2)CC1", "note": "[Compound 91, 2-((4-(bis(4-fluorophenyl)methyl)piperidin-1-yl)methyl)-4-(4-methyl-1,4-diazepan-1-yl)benzonitrile]", "inhibition at 1 µM": "> 75"}, {"smiles": "CN1CCC(N(C)c2ccc(C(F)(F)F)c(CN3CCN(c4ccc(Cl)cc4)CC3)c2)C1", "note": "(centres unmarked) [Compound 92]", "inhibition at 1 µM": "> 75"}, {"smiles": "CCN(C)CCN(C)c1ccc(C#N)c(CN2CCN(C(C)c3cnccn3)CC2)c1", "note": "(centres unmarked) [Compound 93, 4-[{2-[ethyl(methyl)amino]ethyl}(methyl)amino)-2-({4-[1-(pyrazin-2-yl)ethyl]piperazin-1-yl}methyl)benzonitrile]", "inhibition at 1 µM": "50 to 75"}, {"smiles": "CCN(CC)CCN(C)c1ccc(C(F)(F)F)c(CN2CCN(C(c3ccc(Cl)c(Cl)c3)c3ccc(Cl)c(Cl)c3)CC2)c1", "note": "[Compound 94, N1-(3-[{4-[bis(3,4-dichlorophenyl)methyl]piperazin-1-yl}methyl]-4-(trifluoromethyl)phenyl)-N2,N2-diethyl-N1-methylethan-1,2-diamine]", "inhibition at 1 µM": "> 75"}, {"smiles": "Cc1cc(C(c2ccc(Cl)c(C)c2)N2CCN(Cc3cc(N(C)CCN(C)C)ccc3C#N)CC2)ccc1Cl", "note": "[Compound 95, 2-({4-[bis(4-chloro-3-methylphenyl)methyl]piperazin-1-yl}methyl)-4-{[2-(dimethylamino)ethyl](methyl)amino)benzonitrile]", "inhibition at 1 µM": "> 75"}, {"smiles": "CN1CCCN(c2ccc(C(F)(F)F)c(CN3CCN(C(c4ccc(Cl)c(Cl)c4)C4CCCCC4)CC3)c2)CC1", "note": "(centres unmarked) [Compound 96, 1-[3-({4-[cyclohexyl(3,4-dichlorophenyl)methyl]piperazin-1-yl}methyl)-4-(trifluoromethyl)phenyl]-4-methyl-1,4-diazepane]", "inhibition at 1 µM": "> 75"}, {"smiles": "CN1CCCN(c2ccc(C#N)c(CN3CCN(C(c4ccc(Cl)cc4)C4CCC4)CC3)c2)CC1", "note": "(centres unmarked) [Compound 97, 2-({4-[(4-chlorophenyl)(cyclobutyl)methyl]piperazin-1-yl}methyl)-4-(4-methyl-1,4-diazepan-1-yl)benzonitrile]", "inhibition at 1 µM": "> 75"}, {"smiles": "CN1CCN(c2ccc(C#N)c(CN3CCN(C(c4ccc(C(F)(F)F)cc4)c4cnccn4)CC3)c2)CC1", "note": "(centres unmarked) [Compound 99]", "inhibition at 1 µM": "50 to 75"}]}]}
